Like-named read-outs stand apart in the source and are kept apart here. Values belong to the compound of their own block, whether it stands above or below them.
Columns and labels:
[1] = Plasma paclitaxel after single oral dose with or without P-gp inhibitor cyclosporine A; assay type: in vivo, ICR mice
Procedure: ICR mice (male, 25-30 g) were fasted for 12 hr before dosing. Mice were anesthetized with diethyl ether and administered with a single oral dose of paclitaxel or paclitaxel-chitosan conjugates with or without P-gp inhibitor (cyclosporine A, Sigma, 15 mg/kg) through an oral gavage that was carefully passed down the esophagus into the stomach. The drug solutions were prepared in 10% DMSO solution. The total volume of the administered drug solution was 0.2 ml. Blood (450 μl) was collected from a capillary in the retroorbital plexus and directly mixed with 50 Al of sodium citrate (3.8% solution); the sample was then immediately centrifuged at 3000 rpm at 4° C. for 20 min. The concentrations of paclitaxel in plasma were measured using HPLC after extraction.

[2] = test system: B16F10 melanoma cells; assay: Oral administration in B16F10 melanoma allograft (tumor size, survival); assay type: in vivo, C57BL6 male mice; conditions: oral 25 mg/kg, 5 days on, 2 days off, about 30 days; FIG. 7
Procedure: B16F10 melanoma cells were subcutaneously transplanted at a cell density of 5×10^6 cells/mice into a dorsal region of C57BL6 male mice (mean body weight: 25 g). […] Experiments were carried out for mouse groups, each consisting of 5 to 6 animals having the tumor, simultaneously with observation of changes. Animals were given oral administration of the drug or physiological saline for about 30 days, starting on day 10 after tumor transplantation. […] The control group was administered physiological saline, paclitaxel and chitosan. In order to confirm the degree of tumor growth, the size of tumor was daily measured using a calibrator. The tumor size was calculated according to the following Equation (2): Tumor volume (mm^3)=(Length×Width^2)/2 (Equation 2).
The survival rate of mice was also monitored simultaneously with measurement of the tumor size. When the tumor mass reached a size of more than 8000 mm^3, the animals were euthanized.

[3] = oral, cited from earlier work
[4] = test system: Diabetes-induced rats; assay: Bioavailability calculated from degree of blood glucose control (AUC) after oral administration; assay type: in vivo, rat; conditions: insulin 1.77 mg/kg, protease inhibitor not added
Procedure: (§1) An insulin-chitosan conjugate (a conjugate using chitosan of MW 3000, 6000 or 9000 Da) was dissolved in a citrate buffer solution and then diluted with physiological saline to prepare an insulin-chitosan conjugate solution at an insulin concentration of 100 U/mL. Diabetes-induced rats were fasted for 6 hours, and blood was collected from the tail veins of animals and the blood glucose level was determined. The thus-obtained value was used as an initial value prior to administration of the drug. The experimental animals were given oral administration of the above-prepared insulin-chitosan conjugate solution at a dose of 50 IU/kg using a gastric sonde (50 IU is equivalent to 1.77 mg of insulin). As a control, animals were given oral administration of 50 IU/kg insulin and chitosan of MW 9000 Da in the same manner as above. On time points of 1, 2, 3, and 4 hours after administration of the drug, blood was collected from the tail veins of animals and the blood glucose level was determined. The blood glucose level at each time point was calculated by taking the initial value prior to administration of the drug to be 100%.
Then, the bioavailability of conjugates were calculated from the degree of blood glucose control (area under curve, AUC) obtained in FIG. 2 after oral administration of each insulin-chitosan conjugate. […] In addition, as a control, known bioavailability of insulin, a protease-chitosan conjugate and a thiolated chitosan-insulin tablet preparation containing glutathione (a reducing agent) (Krauland A H, et al., J. Control Release, 24; 95(3):547-555 (2004)) was compared.

[5] = test system: Diabetes-induced rats; assay: In vivo oral administration of insulin-chitosan conjugate (blood glucose level); design: species or system rat; conditions: FIG. 2
Procedure: as §1

increase of maximum plasma concentration (Cmax) when coadministrated with cyclosporine A ([1]; cyclosporine A 15 mg/kg, FIG. 6a): 9.3 fold
Cmax ([1]; male, ICR, mouse, plasma, without cyclosporine A, conjugate chitosan MW 6000, read-out: maximum plasma concentration (Cmax) of paclitaxel): 90 ± 20 ng/mL
Compound: CC(=O)O[C@H]1C(=O)[C@@]2(C)[C@H]([C@H](OC(=O)c3ccccc3)[C@]3(O)C[C@H](OC(=O)[C@H](O)[C@@H](NC(=O)c4ccccc4)c4ccccc4)C(C)=C1C3(C)C)[C@]1(OC(C)=O)CO[C@@H]1C[C@@H]2O [paclitaxel]
tumor size compared to the control group [2]: no significant difference in the tumor size
bioavailability of paclitaxel ([3]; PTX only): 4-10%
bioavailability of paclitaxel ([3]; combined with a P-gp inhibitor such as cyclosporin A or Valspodar): 50-60%

Compound: Insulin-3K LMWC: insulin-chitosan conjugate using low molecular weight chitosan of MW 3000 Da
Bioavailability (%) (SC injection: 100%) [4]: 1.89 ± 0.32%

Compound: Insulin-6K LMWC: insulin-6 KDa low molecular weight chitosan conjugate
Bioavailability (%) (IV injection: 100%) [4]: 0.77 ± 0.16%
Bioavailability (%) (SC injection: 100%) [4]: 2.66 ± 0.38%

Compound: Insulin-9K LMWC: insulin-chitosan conjugate using low molecular weight chitosan of MW 9000 Da
Bioavailability (%) (IV injection: 100%) [4]: 1.0 ± 0.13%
Bioavailability (%) (SC injection: 100%) [4]: 3.69 ± 0.29%

Compound: insulin
lowering of the blood glucose levels (in words) ([5]; insulin 50 IU/kg, chitosan of MW 9000 Da): no lowering of the blood glucose levels

Compound: insulin-chitosan conjugate: insulin (B29 lysine) bound via -CO-(CH2)2-S-S-(CH2)2-CO- linker to chitosan of MW 3000, 6000 or 9000
decrease in the blood glucose level compared to the initial blood glucose level ([5]; 50 IU insulin/kg, 2 hours later): > 40%

Source: patent publication US20070292387A1, “TRANSMUCOSAL DELIVERY OF PHARMACEUTICAL ACTIVE SUBSTANCES” (GWANGJU INSTITUTE OF SCIENCE AND TECHNOLOGY, priority 2006, published 2007)
